Source: patent US6613718B2, “Aryl ether derivatives and processes for their preparation and herbicidal and desiccant compositions containing them” (Ishihara Sangyo Kaisha, Ltd., priority 2001, dated 2003)

How the values were obtained:
Type in all cases: in vivo
Details in all cases: 14 days after application
[1] = system: field corn (Zea mays L., var. Dekalb 535, CORN); assay: Post-emerge greenhouse screening, crop safety / corn selectivity (phytotoxicity rating)
Method in brief: (§1)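 Rates of 15 to 1000 g ai/ha were applied by mechanized flat-fan spray. Phytotoxicity was then judged visually at 14 days using a 0-100 scale.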

[2] = system: large crabgrass (Digitaria sanguinalis, DIGSA); assay: Pre-emerge greenhouse herbicide activity screening, phytotoxicity rating
Method in brief: as §1

[3] = system: common ragweed (Ambrosia artemisiifolia L., AMBEL); assay: as above
Method in brief: as §1

[4] = system: redroot pigweed (Amaranthus retroflexus, AMARE); assay: as above
Method in brief: as §1

[5] = system: sicklepod (Cassia obtusifolia, CASOB); assay: as above
Method in brief: as §1

[6] = system: barnyardgrass (Echinochloa crus-galli, ECHCG); assay: as above
Method in brief: as §1

[7] = system: johnsongrass (Sorghum halepense, SORHA); assay: as above
Method in brief: as §1

[8] = system: green foxtail (Setaria viridis, SETVI); assay: as above
Method in brief: as §1

[9] = system: lambsquarters (Chenopodium album, CHEAL); assay: as above
Method in brief: as §1

[10] = system: velvetleaf (Abutilon theophrasti, ABUTH); assay: as above
Method in brief: as §1

[11] = system: ivyleaf morningglory (Ipomoea hederacea, IPOHE); assay: as above
Method in brief: as §1

[12] = system: upland rice (Oryza sp., var.Tebonnet, RICE); assay: Post-emerge greenhouse screening, crop safety (phytotoxicity rating)
Method in brief: as §1

[13] = system: soybean (Glycine max L., var. Pella 86, SOY); assay: as above
Method in brief: as §1

[14] = system: large crabgrass (Digitaria sanguinalis, DIGSA); assay: Post-emerge greenhouse herbicide activity screening, phytotoxicity rating
Method in brief: as §1

[15] = system: common ragweed (Ambrosia artemisiifolia L., AMBEL); assay: as above
Method in brief: as §1

[16] = system: redroot pigweed (Amaranthus retroflexus, AMARE); assay: as above
Method in brief: as §1

[17] = system: sicklepod (Cassia obtusifolia, CASOB); assay: as above
Method in brief: as §1

[18] = system: barnyardgrass (Echinochloa crus-galli, ECHCG); assay: as above
Method in brief: as §1

[19] = system: johnsongrass (Sorghum halepense, SORHA); assay: as above
Method in brief: as §1

[20] = system: green foxtail (Setaria viridis, SETVI); assay: as above
Method in brief: as §1

[21] = system: lambsquarters (Chenopodium album, CHEAL); assay: as above
Method in brief: as §1

[22] = system: velvetleaf (Abutilon theophrasti, ABUTH); assay: as above
Method in brief: as §1

[23] = system: ivyleaf morningglory (Ipomoea hederacea, IPOHE); assay: as above
Method in brief: as §1

[24] = system: upland rice (Oryza sp., var.Tebonnet, RICE); assay: Pre-emerge greenhouse screening, crop safety (phytotoxicity rating)
Method in brief: as §1

[25] = system: soybean (Glycine max L., var. Pella 86, SOY); assay: as above
Method in brief: as §1

[26] = system: field corn (Zea mays L., var. Dekalb 535, CORN); assay: as above
Method in brief: as §1

Cn1c(C(F)(F)F)cc(=O)n(-c2cc(Oc3ccccc3O)c(C#N)cc2F)c1=S [Compound 1-70]
CORN crop damage, phytotoxicity rating (0-100 scale) ([1]; 125 g ai/ha): 0
CORN crop damage, phytotoxicity rating (0-100 scale) ([1]; 250 g ai/ha): 0
DIGSA phytotoxicity rating (0-100 scale) ([2]; 125 g ai/ha): 85
DIGSA phytotoxicity rating (0-100 scale) ([2]; 250 g ai/ha): 99
AMBEL phytotoxicity rating (0-100 scale) ([3]; 125 g ai/ha): 90
AMBEL phytotoxicity rating (0-100 scale) ([3]; 250 g ai/ha): 99
AMARE phytotoxicity rating (0-100 scale) ([4]; 125 g ai/ha): 100
AMARE phytotoxicity rating (0-100 scale) ([4]; 250 g ai/ha): 100
CASOB phytotoxicity rating (0-100 scale) ([5]; 125 g ai/ha): 65
CASOB phytotoxicity rating (0-100 scale) ([5]; 250 g ai/ha): 85
ECHCG phytotoxicity rating (0-100 scale) ([6]; 125 g ai/ha): 85
ECHCG phytotoxicity rating (0-100 scale) ([6]; 250 g ai/ha): 95
SORHA phytotoxicity rating (0-100 scale) ([7]; 125 g ai/ha): 65
SORHA phytotoxicity rating (0-100 scale) ([7]; 250 g ai/ha): 99
SETVI phytotoxicity rating (0-100 scale) ([8]; 125 g ai/ha): 75
SETVI phytotoxicity rating (0-100 scale) ([8]; 250 g ai/ha): 100
CHEAL phytotoxicity rating (0-100 scale) ([9]; 125 g ai/ha): 100
CHEAL phytotoxicity rating (0-100 scale) ([9]; 250 g ai/ha): 100
ABUTH phytotoxicity rating (0-100 scale) ([10]; 125 g ai/ha): 100
ABUTH phytotoxicity rating (0-100 scale) ([10]; 250 g ai/ha): 100
IPOHE phytotoxicity rating (0-100 scale) ([11]; 125 g ai/ha): 99
IPOHE phytotoxicity rating (0-100 scale) ([11]; 250 g ai/ha): 99
RICE crop damage, phytotoxicity rating (0-100 scale) ([12]; 125 g ai/ha): 0
RICE crop damage, phytotoxicity rating (0-100 scale) ([12]; 250 g ai/ha): 0
SOY crop damage, phytotoxicity rating (0-100 scale) ([13]; 125 g ai/ha): 30
SOY crop damage, phytotoxicity rating (0-100 scale) ([13]; 250 g ai/ha): 65
DIGSA phytotoxicity rating (0-100 scale) ([14]; 125 g ai/ha): 15
DIGSA phytotoxicity rating (0-100 scale) ([14]; 250 g ai/ha): 30
AMBEL phytotoxicity rating (0-100 scale) ([15]; 125 g ai/ha): 60
AMBEL phytotoxicity rating (0-100 scale) ([15]; 250 g ai/ha): 65
AMARE phytotoxicity rating (0-100 scale) ([16]; 125 g ai/ha): 100
AMARE phytotoxicity rating (0-100 scale) ([16]; 250 g ai/ha): 100
CASOB phytotoxicity rating (0-100 scale) ([17]; 125 g ai/ha): 65
CASOB phytotoxicity rating (0-100 scale) ([17]; 250 g ai/ha): 65
ECHCG phytotoxicity rating (0-100 scale) ([18]; 125 g ai/ha): 55
ECHCG phytotoxicity rating (0-100 scale) ([18]; 250 g ai/ha): 80
SORHA phytotoxicity rating (0-100 scale) ([19]; 125 g ai/ha): 0
SORHA phytotoxicity rating (0-100 scale) ([19]; 250 g ai/ha): 25
SETVI phytotoxicity rating (0-100 scale) ([20]; 125 g ai/ha): 65
SETVI phytotoxicity rating (0-100 scale) ([20]; 250 g ai/ha): 75
CHEAL phytotoxicity rating (0-100 scale) ([21]; 125 g ai/ha): 100
CHEAL phytotoxicity rating (0-100 scale) ([21]; 250 g ai/ha): 100
ABUTH phytotoxicity rating (0-100 scale) ([22]; 125 g ai/ha): 100
ABUTH phytotoxicity rating (0-100 scale) ([22]; 250 g ai/ha): 100
IPOHE phytotoxicity rating (0-100 scale) ([23]; 125 g ai/ha): 99
IPOHE phytotoxicity rating (0-100 scale) ([23]; 250 g ai/ha): 99
RICE crop damage, phytotoxicity rating (0-100 scale) ([24]; 125 g ai/ha): 50
RICE crop damage, phytotoxicity rating (0-100 scale) ([24]; 250 g ai/ha): 55
SOY crop damage, phytotoxicity rating (0-100 scale) ([25]; 125 g ai/ha): 30
SOY crop damage, phytotoxicity rating (0-100 scale) ([25]; 250 g ai/ha): 80
CORN crop damage, phytotoxicity rating (0-100 scale) ([26]; 125 g ai/ha): 15
CORN crop damage, phytotoxicity rating (0-100 scale) ([26]; 250 g ai/ha): 15
